Consider one molecule from publication PMC4275348 (Molecular microbiology, 2014).

In assay [1] the target is WT LuxN (Vibrio campbellii, UniProt A7MRY4). Particulars: 100 nM AI-1; XK847.
Assay [2] concerns the target T1, LuxN^H210Q (Vibrio campbellii, UniProt A7MRY4, H210Q).
T1 sequence (A7MRY4 1-849 H210Q): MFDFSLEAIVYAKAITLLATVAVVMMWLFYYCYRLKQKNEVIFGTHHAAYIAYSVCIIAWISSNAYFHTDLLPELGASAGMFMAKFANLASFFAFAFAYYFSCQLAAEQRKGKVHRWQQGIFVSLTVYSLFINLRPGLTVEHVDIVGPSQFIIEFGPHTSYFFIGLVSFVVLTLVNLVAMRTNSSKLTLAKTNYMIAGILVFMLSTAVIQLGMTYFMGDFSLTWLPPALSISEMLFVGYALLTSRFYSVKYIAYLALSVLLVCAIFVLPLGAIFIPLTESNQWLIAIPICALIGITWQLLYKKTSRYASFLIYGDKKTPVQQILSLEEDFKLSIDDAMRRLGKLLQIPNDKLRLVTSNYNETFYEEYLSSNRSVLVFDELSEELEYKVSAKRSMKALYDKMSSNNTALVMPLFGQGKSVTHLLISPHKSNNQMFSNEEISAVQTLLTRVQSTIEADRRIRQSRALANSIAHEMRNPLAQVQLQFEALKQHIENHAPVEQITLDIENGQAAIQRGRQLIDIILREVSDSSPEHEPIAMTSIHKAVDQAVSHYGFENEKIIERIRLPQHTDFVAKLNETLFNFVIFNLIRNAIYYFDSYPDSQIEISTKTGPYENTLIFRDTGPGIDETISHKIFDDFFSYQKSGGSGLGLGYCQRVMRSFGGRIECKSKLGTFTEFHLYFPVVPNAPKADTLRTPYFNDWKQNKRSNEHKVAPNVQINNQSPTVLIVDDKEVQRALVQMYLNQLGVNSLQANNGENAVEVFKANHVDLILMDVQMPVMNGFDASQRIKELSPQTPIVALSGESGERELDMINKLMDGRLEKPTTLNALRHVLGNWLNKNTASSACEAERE
The experiment in a line: Bioluminescence of V. harveyi XK006 carrying luxN H210Q. Particulars: 1 μM AHL. In kind it is cell-based, Vibrio harveyi.

The test system of assay [3] is Kin^off LuxN mutants. In words: Bioluminescence of V. harveyi XK847 harboring Kin^off luxN alleles. In kind it is cell-based, Vibrio harveyi.
Assay [4] deals with T2, luxN^T159I/Y193K (Vibrio campbellii, UniProt A7MRY4, N193K/T159I).
T2 sequence (A7MRY4 1-849 T159I/N193K): T1 sequence (A7MRY4 1-849 H210Q) with T159I, N193K, Q210H
The experiment in a line: Bioluminescence of V. harveyi XK006 carrying luxN T159I/Y193K. It is filed as cell-based, Vibrio harveyi.

Assay [5] deals with T3, LuxN^H210T (Vibrio campbellii, UniProt A7MRY4, H210T).
T3 sequence (A7MRY4 1-849 H210T): T1 sequence (A7MRY4 1-849 H210Q) with Q210T
The experiment in a line: Bioluminescence of V. harveyi XK006 carrying luxN H210T. It is filed as cell-based, Vibrio harveyi. The conditions noted are these: 1 μM AHL.

SMILES strings stand for the structures. Numbering of substitutions follows the chain as printed.

For `C[C@@H](O)CC(=O)N[C@H]1CCOC1=O` [3OH-C4 HSL, N-((R)-3-hydroxybutanoyl)-L-homoserine lactone], the “increase in light production” value in assay [1] was found to be 1000 fold. Moreover, the “induction of light production” value in assay [2] was found to be 50 fold. In addition, the “light production / detection” value in assay [3] was “produced maximal light”. Also, the “response (dose-dependent light production)” value in assay [4] is “most potent agonist”. Also, the “response (light production)” value in assay [5] is given as “modest response”.
